The values that follow come from PMC3984256, “A PCNA-Derived Cell Permeable Peptide Selectively Inhibits Neuroblastoma Cell Growth” (PLoS ONE, 2014).

One assay concerns SK-N-BE(2)c cells. Put plainly: Clonogenic assay. In kind it is cell-based, human. The following applies: R9-caPep alone 20 µM 3 weeks, or cisplatin alone 1 µM 2 h, 3 dishes averaged. As to the method: Three hundred fifty SK-N-BE(2)c cells were seeded onto a 60-mm tissue culture dish. Once attached overnight, cells were treated with or without cisplatin for 2 h. Cells were washed twice with growth medium and were cultured in fresh medium with or without R9-caPep for 3 weeks to allow colony formation. The medium was changed every 3 d. The colonies formed under each treatment conditions were counted after being stained with 0.5% crystal violet.

The next assay deals with panel of NB cell lines. In kind it is cell-based, human. Conditions: up to 50 µM; data not shown. As to the method: The human NB cell lines, SK-N-DZ, SK-N-BE(2)c, SK-N-AS, SK-N-SH, and SK-N-FI were obtained from the American Type Culture Collection (Rockville, MD). Cells were maintained in DMEM with 10% fetal bovine serum (FBS), 100 units/ml penicillin, and 100 µg/ml streptomycin in the presence of 5% CO2 at 37°C. Human PBMCs from a healthy donor were purchased from Sanguine BioSciences (Valencia, CA) and grown in RPMI1640 with10% FBS, 100 units/ml penicillin, 100 µg/ml streptomycin, and 10 ng/ml IL-2 in the presence of 5% CO2 at 37°C. Human embryonic progenitor cell line 7SM0032 was acquired from Millipore (Billerica, MA) and grown in the hEPM-1 Media Kit purchased from the same company.
To measure cell growth, cells were seeded at 3×10^4/ml. After being allowed to attach overnight, cells were treated with various concentrations of the peptides for 72 h. Cell growth was measured by the CellTitor-Glo assay (Promega, Madison, WI) according to manufacturer's instruction. To measure apoptosis, cells were seeded at 1×10^5/ml onto a chamber slide. Once attached, cells were treated with the peptides for 48 h. Cells were fixed and analyzed by a TUNEL assay using the TMR red in situ cell death detection kit (Roche Diagnostics, Indianapolis, IN).

The subject of assay [1] is PCNA and FEN1 co-localization in SK-N-AS NB cells. As to the kind of experiment: PCNA/FEN1 co-localization, immunofluorescence. Conditions: synchronized, 30 µM peptide 6 h after mimosine release. It is filed as cell-based, human. As to the method:
(§1) Cells were seeded at 1×10^5/ml onto a chamber slide and were allowed to attach overnight. To analyze the interaction of PCNA with FEN1, LIGI, or Pol ä, we first synchronize cells at the G1/S boundary. The synchronization is achieved by starving cells in medium containing 0.25% FBS for 24 h. Cells were further cultured in the complete medium containing 400 µM of mimosine for 24 h. To release cells into S phase, cells were washed and incubated in mimosine-free medium containing 30 µM R9-caPep or R9-srbPep for 6 h. We pre-determined that the majority of cells were in the S-phase 6 h after mimosine was removed (data not shown). Cells were fixed in ice-cold methanol:acetone (50%:50%) for 10 min or in 4% paraformaldehyde for 20 min at room temperature. Cells were incubated with a goat polyclonal anti-PCNA antibody (Santa Cruz) and a mouse monoclonal anti-FEN1 antibody (Santa Cruz), a mouse anti-POLD3 antibody (Sigma, St. Louis, MO), or a mouse anti-LIGI antibody (Abcam, Cambridge, MA) for 1 h at room temperature. After being washed with PBS, cells were incubated with Alexa Fluor 488 conjugated anti-mouse IgG and Alexa Fluor 555 conjugated anti-goat IgG antibodies (Invitrogen, Grand Island, NY) for 1 h. Cells were mounted in Vectashield with DAPI (Vector Labs, Burlingame, CA) and visualized by a confocal microscope.

Assay [2] relates to PCNA and LIGI co-localization in SK-N-AS NB cells. Put plainly: PCNA/LIGI co-localization, immunofluorescence. In kind it is cell-based, human. Conditions: synchronized, 30 µM peptide 6 h after mimosine release. As to the method: as §1
Another assay relates to synchronized cells. Put plainly: Cell cycle analysis of synchronized cells within 6 h (data not shown). It is filed as cell-based. Conditions: 6 h after mimosine release. As to the method:
Cells were seeded at 1×10^5/ml. Once attached, cells were treated with or without R9-caPep for 48 hours. Cells were fixed in 60% ethanol and stained with propidium iodide (PI). The cellular PI fluorescence intensity was determined by flow cytometry. The flow cytometry data were analyzed by the FlowJo program to model various cell populations.
as §1, with “After being washed with PBS, cells were incubated with Alexa Fluor 488 conjugated anti-mouse IgG and Alexa Fluor 555 conjugated anti-goat IgG antibodies (Invitrogen, Grand Island, NY) for 1 h. Cells were mounted in Vectashield with DAPI (Vector Labs, Burlingame, CA) and visualized by a confocal microscope.” left out

In a further assay the test system is ãH2A.X level. Put plainly: γH2A.X western blot after γ-irradiation. In kind it is cell-based. Conditions: 30 µM peptide, 2 h pretreatment, 5 Gy. As to the method:
(§2) To study DNA damage and repair, attached cells were pretreated with the peptides for 2 h and were then ã-irradiated (5 Gy). After irradiation, cells were cultured in the presence of the peptides for the indicated time. For analyzing ãH2A.X foci formation, cells were fixed in a solution of methanol and acetone (70%:30% v/v) for 15 min at −20°C. The slides were air-dried for storage and rehydrated in PBS prior to immunostaining. Cells were stained by a mouse monoclonal antibody specific to ãH2A.X (Millipore, Billerica, MA) followed by an Alexa Fluor 488 conjugated anti-mouse IgG antibody. For analyzing Rad51 foci formation, cells were fixed in PBS buffered 4% paraformaldehyde at room temperature for 15 min. After being washed twice by PBS, cells were permeabilized in PBS containing 0.5% triton for 15 min on ice. The fixed and permeabilized cells were stained with a rabbit polyclonal antibody raised against the human Rad51 (Santa Cruz) followed by an Alexa Fluor 488 conjugated anti-rabbit IgG antibody. Stained cells were visualized and imaged by a confocal microscope.
Cell extracts were prepared by dissolving cell pellets directly into the Laemmli sample buffer and resolved in a 4–12% SDS polyacrylamide gel. Resolved proteins were blotted onto a nitrocellulose membrane. The membrane was blocked with 5% nonfat dry milk and incubated with an antibody specific to ãH2A.X (Millipore), total H2A.X (Cell Signaling Technology, Danvers, MA), MYCN (Cell Signaling Technology), or actin (Sigma) in the blocking buffer. After incubation with peroxidase-conjugated secondary antibodies, the protein of interest was detected using an ECL kit purchased from GE Healthcare.
For orientation: In western blotting, separated proteins are transferred to a membrane and probed.

Assay [3] deals with Rad51 foci in SK-N-BE(2)c cells. Put plainly: Rad51 foci immunofluorescence after γ-irradiation. It is filed as cell-based, human. Conditions: 2 h peptide pretreatment, 5 Gy; 48 h after irradiation. As to the method:
as §2

The target of assay [4] is T1, interaction between PCNA and the PIP-box sequence of FEN1 (Homo sapiens, UniProt P39748).
T1 construct: Recombinant PCNA (rPCNA), purchased from Surmodics, Inc. (Edina, MN); FEN1 peptide containing the PIP-box (SKSRQGSTQGRLDDFF); purchased Surmodics, Inc. (Edina, MN)
As to the kind of experiment: SPR (Biacore) PCNA binding to immobilized FEN1 PIP-box in presence of caPep. As to the method:
All experiments were conducted on the Biacore T100 (GE Healthcare Life Sciences, Piscataway, NJ) in the running buffer HBS-EP+ (10 mM HEPES pH 7.4, 0.15 M NaCl, 3 mM EDTA, 0.05% v/v Surfactant P20). FEN1 peptide containing the PIP-box (SKSRQGSTQGRLDDFF) was immobilized on a carboxymethylated dextran modified CM5 chip using carbodiimide covalent linkage procedures outlined by the manufacturer (GE Healthcare Life Sciences). Recombinant PCNA (rPCNA), purchased from Surmodics, Inc. (Edina, MN), were serially diluted in the HBS-EP+ buffer and flowed over the FEN1-coated sensor chip in the presence of 0, 500, or 1000 nM of caPep at a 5 ìl/min flow rate with a contact time of 3 minutes, followed by dissociation under the same buffer condition and regeneration of the chip surface in 10 mM glycine-HCl (pH 2.0). Binding curves were recorded for rPCNA concentrations ranging from 250 to 1000 nM in the presence of 0, 500, or 1000 nM of caPep. Kinetic parameters from Biacore binding data were determined using Biacore T100 Evaluation Software Version 2.0.3.
In general terms: Surface plasmon resonance follows binding to a sensor surface in real time, without labels.

As for `N.N.[Cl][Pt][Cl]` [cisplatin, reference compound], in the assay on SK-N-BE(2)c cells, the “reduction of number of colonies, single agent” value is listed as “less than 30%”.
With “RDRDRDRDRDRDRDRDRDCCEPGLIYEQ [R9-srbPep, R9-CC fused to the same residues as PCNA L126-Y133 in scrambled order; control]”, in the assay with panel of NB cell lines, the “effect on cell growth” value is “did not significantly affect cell growth up to 50 µM”. In addition, in assay [1], the “FEN1 co-localization with PCNA foci” value was “PCNA co-localized with FEN1 and LIGI at discrete foci”. For the same compound, in assay [2], the “LIGI co-localization with PCNA foci” value was “PCNA co-localized with FEN1 and LIGI at discrete foci”. The “cell cycle progress within 6 h” value with synchronized cells is listed as “neither peptide significantly affected cell cycle progress within 6 h”. For the same compound, in the assay with ãH2A.X level, the “ãH2A.X level within 30 min after irradiation” value is given as “increased within 30 min following ã-irradiation in cells treated with either peptide”. Further, the “ãH2A.X level 48 h after irradiation” value in the assay on ãH2A.X level (48 h) was “went down to a basal level by 48 h”. The “Rad51 foci at 48 h” value in assay [3] was “almost completely resolve the Rad51 foci”.
Regarding “caPep: eight amino acid peptide corresponding to the L126-Y133 sequence of human PCNA (LGIPEQEY)”, the “affinity of PCNA-FEN1 PIP-box interaction” value in assay [4] (0, 500 or 1000 nM caPep) is listed as “decrease the affinity of PCNA-FEN1 PIP-box interaction in a dose-dependent manner”. Further, the “rPCNA interaction with immobilized FEN1 PIP-box sequence (SPR response)” value in assay [4] (1000 nM rPCNA, 0, 500 or 1000 nM caPep) is given as “significantly reduced rPCNA interaction with the immobilized FEN1 PIP-box sequence”.
